This note sets out measurements from ChEMBL document CHEMBL5126499, “Small molecule therapeutics for tauopathy in Alzheimer's disease: Walking on the path of most resistance” (Eur J Med Chem, 2021).

Some results are limits rather than exact numbers.

A short description of data set [1]: Reduction of tau protein level in human HeLa C3 cells transfected with human 4R0N tau at 30 uM incubated for 24 hrs by Western blot analysis relative to control. In kind it is functional. Also noted: scale not given: the % may be the effect or the level left.
A short description of data set [2]: Induction of SirT2 production in mouse N2a cells transfected with ApoE4 assessed as increase in SirT2 levels by sandwich ELISA. In kind it is functional, cell-based. For orientation: ELISA stands for enzyme-linked immunosorbent assay.
Data set [3] is described as follows: Tmax in mouse brain at 10 mg/kg, ip. In kind it is ADME, organism-based.
Data set [4] can be described thus: Cmax in mouse brain at 10 mg/kg, ip. In kind it is ADME, organism-based. Also noted: dose 10 mg/kg, route ip. Conditions: in vivo.
The species entered for data set [5] is Homo sapiens. Briefly: Inhibition of human HSP70 ATPase activity at 10 uM incubated for 3 hrs by malachite green reagent based HTS analysis relative to control.
Data set [6] can be described thus: Inhibition of human HSP70 ATPase activity at incubated for 3 hrs by malachite green reagent based HTS analysis.
Data set [7] in a line: Inhibition of HSP70 in human SK-N-BE(2)-M17 cells overexpressing tau protein assessed as reduction in tau protein level measured after 24 hrs by Western blot analysis. Type of data set: cell-based. Particulars: SK-N-BE(2)-M17, 24 h.
In data set [8] the test system is HeLa C3. Briefly: Inhibition of HSP70 in human HeLa C3 cells overexpressing tau protein assessed as reduction in tau protein level at 0.025 to 9 uM measured after 24 hrs by Western blot analysis relative to control. Type of data set: cell-based. Particulars: dose 0.025-9 µM. A general note: Immunoblotting shows a protein as a band on a membrane.
Data set [9] is described as follows: Inhibition of HSP70 in human HeLa C3 cells overexpressing tau protein assessed as reduction in tau protein level measured after 24 hrs by Western blot analysis. In kind it is cell-based. Particulars: HeLa C3, 24 h.
For data set [10], the system named is SK-N-BE(2)-M17. The experiment in a line: Inhibition of HSP70 in human SK-N-BE(2)-M17 cells overexpressing tau protein assessed as reduction in tau protein level at 0.025 to 9 uM measured after 24 hrs by Western blot analysis relative to control. Type of data set: cell-based. Conditions: dose 0.025-9 µM.
The subject of data set [11] is Drosophila. Briefly: Inhibition of tau protein accumulation in Drosophila larvae eye assessed as reduction in tau protein level at 0.75 mg/ml dripped every other day by immunohistochemistry. In kind it is functional.

As to `CCn1c(=O)/c(=C2\Sc3cc(C(F)(F)F)ccc3N2C)s/c1=C\c1ccccn1`, the Activity in [1] is recorded as 50%.
In the case of `CC(N)C(=O)OC(C)(C)Cc1ccc(Cl)cc1` (stereo unspecified) [ALAPROCLATE], the EC50 in data set [2] came out at 2 µM.
`CCNC1=NC(c2ccc(F)cc2)NC(=O)N1` (stereo unspecified): the Tmax in data set [3] was 30 min. For the same compound, the Cmax in [4] is given as 1.5 ng/mg.
As to `O=c1c(O)c(-c2cc(O)c(O)c(O)c2)oc2cc(O)cc(O)c12` [MYRICETIN], the inhibition in [5] was greater than 80%. In [6], this compound registered an IC50 of 12 µM.
`CCn1c(=O)/c(=C2\Sc3ccccc3N2C)s/c1=C\c1cccc[n+]1C`: the EC50 in data set [7] stood at 1.5 µM; in data set [9], 0.9 µM. The inhibition in data set [8] and in data set [10] was 75% each time.
With `CCn1c(=O)/c(=C2\Sc3ccccc3N2C)s/c1=C\c1cccc[n+]1CC`, the EC50 in [9] stood at 8 µM.
In [5], `CNc1ccc2nc3ccc(N)cc3[s+]c2c1` [AZURE C] returned an inhibition greater than 80%. Further, the IC50 in [6] worked out at 11 µM.
Take `CN(C)c1ccc2nc3ccc(N(C)C)cc3[s+]c2c1` [METHYLENE BLUE ANHYDROUS]: it took 83 µM to reach half-maximal inhibition in data set [6] (IC50).
`CN(C)c1ccc2nc3ccc(=[N+](C)C)cc-3sc2c1` gave an inhibition in [5] greater than 80%.
Consider `O=C1C(Cl)=C(N[C@@H](Cc2c[nH]c3ccccc23)C(=O)O)C(=O)c2ccccc21`, for which the inhibition at 750 µg/mL in data set [11] was found to be 70%.

Usually EC50 stands for the concentration needed to bring the measured effect to its halfway point. What is called Tmax is the time at which the peak concentration occurs. Broadly, the inhibition is how much of the control response was suppressed. In general, IC50 refers to the concentration at which inhibition is half-maximal.
